Data taken from the NIST ThermoML archive (doi:10.1021/je101178u).
Values joined by “and” are separate entries in the source; they are usually repeats but may differ in a detail not shown here. Equal entries are not always repeated. ± gives the expanded uncertainty stated by the source.

Details: 307.15 K, Fluid (supercritical or subcritical phases); for mass density: Buoyancy - hydrostatic balance with magnetic suspension - one sinker; for viscosity: vibrating wire

CC [ethane]
Details | mass density | viscosity
2134.4 kPa | 30.049 ± 0.067 kg/m3 | 0.01007 ± 6e-05 mPa·s
2134.5 kPa | 30.051 ± 0.067 kg/m3 | 0.01006 ± 6e-05 mPa·s
2653.6 kPa | 39.629 ± 0.085 kg/m3 | 0.01038 ± 6.2e-05 mPa·s
2653.7 kPa | 39.631 ± 0.085 kg/m3 | 0.01038 ± 6.2e-05 mPa·s
2674.2 kPa | 40.039 ± 0.096 kg/m3 and 40.038 ± 0.096 kg/m3 | 0.01034 ± 6.2e-05 mPa·s
2674.3 kPa | 40.04 ± 0.096 kg/m3 | 0.01034 ± 6.2e-05 mPa·s
3138.1 kPa | 50.006 ± 0.13 kg/m3 | 0.01066 ± 6.5e-05 mPa·s
3138.2 kPa | 50.008 ± 0.13 kg/m3 | 0.01066 ± 6.5e-05 mPa·s
3138.4 kPa | 50.012 ± 0.13 kg/m3 | 0.01066 ± 6.5e-05 mPa·s
3539.6 kPa | 60.147 ± 0.18 kg/m3 | 0.01103 ± 7e-05 mPa·s
3539.8 kPa | 60.154 ± 0.18 kg/m3 | 0.01103 ± 7e-05 mPa·s
3815.6 kPa | 68.316 ± 0.15 kg/m3 | 0.01142 ± 6.9e-05 mPa·s
3821.7 kPa | 68.511 ± 0.15 kg/m3 | 0.01143 ± 6.9e-05 mPa·s
3889 kPa | 70.711 ± 0.25 kg/m3 | 0.01145 ± 8e-05 mPa·s
3892.4 kPa | 70.823 ± 0.25 kg/m3 | 0.01146 ± 8e-05 mPa·s
4150.5 kPa | 80.267 ± 0.33 kg/m3 | 0.01188 ± 9.7e-05 mPa·s
4151.6 kPa | 80.309 ± 0.33 kg/m3 | 0.01189 ± 9.8e-05 mPa·s
4152 kPa | 80.328 ± 0.33 kg/m3 | 0.01189 ± 9.8e-05 mPa·s
4152.4 kPa | 80.342 ± 0.33 kg/m3 | 0.01189 ± 9.7e-05 mPa·s
4328.6 kPa | 88.031 ± 0.45 kg/m3 | 0.01226 ± 0.00013 mPa·s
4329.5 kPa | 88.072 ± 0.45 kg/m3 | 0.01226 ± 0.00013 mPa·s
4330.1 kPa | 88.099 ± 0.45 kg/m3 | 0.01227 ± 0.00013 mPa·s
4330.4 kPa | 88.116 ± 0.45 kg/m3 | 0.01226 ± 0.00013 mPa·s
4331.5 kPa | 88.167 ± 0.45 kg/m3 | 0.01226 ± 0.00013 mPa·s
4514.6 kPa | 97.86 ± 0.67 kg/m3 | 0.01277 ± 0.00019 mPa·s
4516.2 kPa | 97.954 ± 0.67 kg/m3 | 0.01278 ± 0.00019 mPa·s
4517.4 kPa | 98.024 ± 0.67 kg/m3 | 0.01279 ± 0.00019 mPa·s
4518.3 kPa | 98.079 ± 0.67 kg/m3 | 0.01279 ± 0.00019 mPa·s
4519.2 kPa | 98.129 ± 0.67 kg/m3 | 0.01279 ± 0.00019 mPa·s
4557.7 kPa | 100.499 ± 0.33 kg/m3 | 0.01302 ± 8.1e-05 mPa·s
4558.1 kPa | 100.521 ± 0.33 kg/m3 | 0.01302 ± 8.1e-05 mPa·s
4736.3 kPa | 113.82 ± 1.2 kg/m3 | 0.01371 ± 0.00037 mPa·s
4736.7 kPa | 113.852 ± 1.2 kg/m3 | 0.01371 ± 0.00037 mPa·s
4939.2 kPa | 140.104 ± 2.4 kg/m3 | 0.01552 ± 0.00081 mPa·s
4939.3 kPa | 140.112 ± 2.4 kg/m3 | 0.01552 ± 0.00081 mPa·s
5008.9 kPa | 160.457 ± 0.35 kg/m3 and 160.473 ± 0.35 kg/m3 | 0.01729 ± 0.0001 mPa·s
5019.4 kPa | 165.641 ± 8.3 kg/m3 and 165.625 ± 8.3 kg/m3 | 0.01766 ± 0.0034 mPa·s
5019.5 kPa | 165.654 ± 8.3 kg/m3 | 0.01767 ± 0.0034 mPa·s
5042.9 kPa | 182.964 ± 15 kg/m3 | 0.01932 ± 0.0068 mPa·s
5043 kPa | 183.065 ± 15 kg/m3 and 183.021 ± 15 kg/m3 | 0.01933 ± 0.0068 mPa·s and 0.01932 ± 0.0068 mPa·s
5050.1 kPa | 191.037 ± 0.42 kg/m3 | 0.02022 ± 0.00012 mPa·s
5050.2 kPa | 191.169 ± 0.42 kg/m3 | 0.02023 ± 0.00012 mPa·s
5051 kPa | 192.154 ± 15 kg/m3 and 192.131 ± 15 kg/m3 | 0.02026 ± 0.0067 mPa·s
5051.1 kPa | 192.228 ± 15 kg/m3 and 192.185 ± 15 kg/m3 | 0.02028 ± 0.0067 mPa·s
5058.7 kPa | 202.521 ± 14 kg/m3 and 202.456 ± 14 kg/m3 | 0.02133 ± 0.0066 mPa·s and 0.02132 ± 0.0066 mPa·s
5058.8 kPa | 202.654 ± 14 kg/m3 and 202.599 ± 14 kg/m3 and 202.583 ± 14 kg/m3 | 0.02137 ± 0.0066 mPa·s and 0.02136 ± 0.0066 mPa·s and 0.02133 ± 0.0066 mPa·s
5060.1 kPa | 204.501 ± 0.44 kg/m3 | 0.02168 ± 0.00013 mPa·s
5060.2 kPa | 204.534 ± 0.45 kg/m3 and 204.598 ± 0.45 kg/m3 | 0.02168 ± 0.00013 mPa·s
5060.3 kPa | 204.743 ± 14 kg/m3 and 204.709 ± 14 kg/m3 | 0.02159 ± 0.0066 mPa·s and 0.02158 ± 0.0066 mPa·s
5060.4 kPa | 204.805 ± 14 kg/m3 | 0.02159 ± 0.0066 mPa·s
5062 kPa | 207.173 ± 0.45 kg/m3 | 0.02199 ± 0.00013 mPa·s
5062.1 kPa | 207.31 ± 0.45 kg/m3 | 0.02199 ± 0.00013 mPa·s
5062.2 kPa | 207.441 ± 0.45 kg/m3 | 0.022 ± 0.00013 mPa·s
5064.1 kPa | 209.963 ± 14 kg/m3 and 209.982 ± 14 kg/m3 and 209.961 ± 14 kg/m3 | 0.02215 ± 0.0066 mPa·s and 0.02216 ± 0.0066 mPa·s
5064.2 kPa | 210.139 ± 14 kg/m3 and 210.11 ± 14 kg/m3 | 0.02219 ± 0.0066 mPa·s
5065.4 kPa | 211.657 ± 0.46 kg/m3 and 211.736 ± 0.46 kg/m3 | 0.02255 ± 0.00014 mPa·s
5065.5 kPa | 211.805 ± 0.46 kg/m3 | 0.02255 ± 0.00014 mPa·s
5105 kPa | 242.924 ± 8.5 kg/m3 and 242.96 ± 8.5 kg/m3 | 0.02579 ± 0.0043 mPa·s
5105.1 kPa | 243 ± 8.5 kg/m3 | 0.02579 ± 0.0043 mPa·s
5105.2 kPa | 243.012 ± 8.5 kg/m3 | 0.0258 ± 0.0043 mPa·s
5160.6 kPa | 259.321 ± 1.9 kg/m3 | 0.02781 ± 0.0013 mPa·s
5160.9 kPa | 259.389 ± 1.9 kg/m3 | 0.02781 ± 0.0013 mPa·s
5161 kPa | 259.401 ± 1.9 kg/m3 and 259.396 ± 1.9 kg/m3 | 0.02781 ± 0.0013 mPa·s and 0.0278 ± 0.0013 mPa·s
5187.1 kPa | 264.206 ± 0.57 kg/m3 | 0.02852 ± 0.00017 mPa·s
5187.4 kPa | 264.252 ± 0.57 kg/m3 | 0.02852 ± 0.00017 mPa·s
5187.6 kPa | 264.291 ± 0.57 kg/m3 | 0.02852 ± 0.00017 mPa·s
5348.1 kPa | 282.102 ± 0.81 kg/m3 | –
